In paper PMC4492757 (Pharmacology Research & Perspectives, 2015):
pEC50, pIC50, pKd: −log10 of the molar value. Values belong to the compound of their own block, whether it stands above or below them.

Legend:
Assay type in all cases: cell-based
hFFA2 [1] = molecular target: T1, hFFA2 (Homo sapiens, UniProt O15552); assay: LANCE cAMP assay, U2OS cells
T1 sequence (O15552 1-330): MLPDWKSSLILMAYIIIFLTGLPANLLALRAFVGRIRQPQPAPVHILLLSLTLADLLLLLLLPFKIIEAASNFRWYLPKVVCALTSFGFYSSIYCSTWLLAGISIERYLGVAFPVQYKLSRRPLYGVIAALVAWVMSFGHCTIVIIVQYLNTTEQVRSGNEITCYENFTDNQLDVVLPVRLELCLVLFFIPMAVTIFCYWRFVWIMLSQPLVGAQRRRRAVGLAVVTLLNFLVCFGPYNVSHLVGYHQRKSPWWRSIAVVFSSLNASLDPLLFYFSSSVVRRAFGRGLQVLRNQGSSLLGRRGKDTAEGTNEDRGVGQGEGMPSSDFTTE

hFFA2 [2] = molecular target: T1, hFFA2; assay: yeast reporter assay, antagonism
hFFA2 [3] = molecular target: T1, hFFA2; assay: yeast reporter assay, operational model fit
hFFA2 [4] = molecular target: T1, hFFA2; assay: yeast FUS1-HIS3 reporter growth assay

pEC50 (hFFA2 [1]): 3.90
SMILES: CC(=O)O [C2, acetate]

Kb (hFFA2 [2]): 501 nM
SMILES: O=C(N[C@@H](Cc1c[nH]c2ccccc12)C(=O)O)c1ccc(Cl)cc1 [N-CBT, N-(4-Chlorobenzoyl)-L-tryptophan]

pKd (hFFA2 [3]): 6.81
SMILES: O=C(O)C[C@H](C(=O)Nc1nc(-c2ccccc2Cl)cs1)c1ccccc1 [compound 9, (S)-4-(4-(2-chlorophenyl)thiazol-2-ylamino)-4-oxo-3-phenylbutanoic acid]

pIC50 (hFFA2 [4]): 6.73
SMILES: CN(C(=O)[C@H]1CCCC[C@H]1C(=O)O)c1nc(-c2ccccc2Cl)cs1 [compound 101, cis-2-((4-(2-chlorophenyl)thiazol-2-yl)(methyl)carbamoyl)cyclohexaneccarboxylic acid]
